Experimental data published in ChEMBL document CHEMBL1201862, “PubChem BioAssay data set” (2004).
Activity calls are given as the source filed them.

How the values were obtained:
[1] = molecular target: T1, Carboxy-terminal domain RNA polymerase II polypeptide A small phosphatase 1 (Homo sapiens, UniProt Q9GZU7); assay: inhibitors of CTDSP1, concentration-response testing, biochemical assay, absorbance-based, actives from ultra-high-throughput screening (AID 540297); type: functional
T1 sequence (Q9GZU7 whole entry): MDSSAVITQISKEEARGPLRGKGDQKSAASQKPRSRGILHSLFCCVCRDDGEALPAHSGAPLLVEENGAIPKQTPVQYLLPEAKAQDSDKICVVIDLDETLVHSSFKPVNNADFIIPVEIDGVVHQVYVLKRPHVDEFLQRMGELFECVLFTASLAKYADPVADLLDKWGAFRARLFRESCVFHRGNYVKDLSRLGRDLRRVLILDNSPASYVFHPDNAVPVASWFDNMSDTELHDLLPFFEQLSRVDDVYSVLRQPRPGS

[2] = molecular target: T2, Short transient receptor potential channel 4 (Mus musculus, UniProt Q9QUQ5); assay: mouse TRPC4 channel inhibitors, dose response, cell-based, HEK293 TRPC4/mu-opioid, Fluo-4 calcium (AID 434942); type: functional;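 note: potency of inhibitors blocking the TRPC4 calcium response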
T2 sequence (Q9QUQ5 whole entry): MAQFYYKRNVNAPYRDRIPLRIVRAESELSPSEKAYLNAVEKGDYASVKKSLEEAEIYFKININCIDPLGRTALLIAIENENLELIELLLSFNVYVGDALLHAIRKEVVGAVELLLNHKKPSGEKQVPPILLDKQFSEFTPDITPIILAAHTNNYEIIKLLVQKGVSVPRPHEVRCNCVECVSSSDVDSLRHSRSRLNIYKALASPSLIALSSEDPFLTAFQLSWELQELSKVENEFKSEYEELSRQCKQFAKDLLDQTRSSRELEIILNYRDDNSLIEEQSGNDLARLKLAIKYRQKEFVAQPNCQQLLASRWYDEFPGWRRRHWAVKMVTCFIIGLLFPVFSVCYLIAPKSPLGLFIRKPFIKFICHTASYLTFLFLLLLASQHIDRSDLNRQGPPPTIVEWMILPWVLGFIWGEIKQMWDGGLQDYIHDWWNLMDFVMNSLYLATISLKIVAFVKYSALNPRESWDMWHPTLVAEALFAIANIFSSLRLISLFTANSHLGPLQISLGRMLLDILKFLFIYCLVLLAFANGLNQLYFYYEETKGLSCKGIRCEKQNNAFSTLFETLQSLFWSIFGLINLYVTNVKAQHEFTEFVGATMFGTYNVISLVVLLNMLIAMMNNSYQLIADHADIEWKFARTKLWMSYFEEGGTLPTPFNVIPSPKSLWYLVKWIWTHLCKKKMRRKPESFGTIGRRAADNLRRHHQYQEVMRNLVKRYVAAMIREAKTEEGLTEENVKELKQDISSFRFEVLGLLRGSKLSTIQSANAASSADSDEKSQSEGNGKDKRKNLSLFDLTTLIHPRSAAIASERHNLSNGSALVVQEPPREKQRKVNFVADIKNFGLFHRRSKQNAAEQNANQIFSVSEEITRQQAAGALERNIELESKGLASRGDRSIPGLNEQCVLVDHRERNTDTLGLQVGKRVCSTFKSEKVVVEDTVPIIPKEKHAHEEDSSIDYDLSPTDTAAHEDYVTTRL

[3] = tested on: Streptococcus sp. 'group A'; assay: growth inhibition of control SK(-) GAS strain, dose response, counter-screen for streptokinase expression inhibitor project, luminescence, kanamycin, BacTiterGlo, confirmation (AID 1900); type: functional, organism-based
Streptococcus = assay: Group A Streptococcus viability loss, dose response, counter-screen for streptokinase expression inhibitor project, luminescence, BacTiterGlo (AID 1915); type: functional, organism-based;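 note: potency for reduction of bacterial viability or growth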
Melanocortin receptor 4 = Melanocortin receptor 4 (Homo sapiens, UniProt P32245); type: functional, cell-based;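 note: Cell-based assay with luminescence read-out, confirmatory dose-response testing for agonist activity of biased ligands at MC4R; human U2OS cells with tagged receptor and beta-arrestin; potency of agonists that increase receptor coupling to beta-arrestin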
Melanocortin receptor 4, sequence (P32245 whole entry): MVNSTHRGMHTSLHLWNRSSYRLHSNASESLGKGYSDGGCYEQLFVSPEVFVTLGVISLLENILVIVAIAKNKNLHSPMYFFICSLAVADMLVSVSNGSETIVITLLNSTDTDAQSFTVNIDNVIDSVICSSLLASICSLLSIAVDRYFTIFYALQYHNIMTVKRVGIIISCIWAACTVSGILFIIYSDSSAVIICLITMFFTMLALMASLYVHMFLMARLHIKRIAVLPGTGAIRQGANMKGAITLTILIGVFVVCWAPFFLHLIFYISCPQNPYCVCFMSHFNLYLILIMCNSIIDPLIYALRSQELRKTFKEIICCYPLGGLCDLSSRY

Cytochrome P450 2C19 = Cytochrome P450 2C19 (Homo sapiens, UniProt P33261); assay: Cytochrome panel assay with activity outcomes. Panel member name: p450-cyp2c19 Compounds with AC50 equal or less than 10 uM are considered active; type: functional; conditions: read-out: AC50
Cytochrome P450 2C19, sequence (P33261 whole entry): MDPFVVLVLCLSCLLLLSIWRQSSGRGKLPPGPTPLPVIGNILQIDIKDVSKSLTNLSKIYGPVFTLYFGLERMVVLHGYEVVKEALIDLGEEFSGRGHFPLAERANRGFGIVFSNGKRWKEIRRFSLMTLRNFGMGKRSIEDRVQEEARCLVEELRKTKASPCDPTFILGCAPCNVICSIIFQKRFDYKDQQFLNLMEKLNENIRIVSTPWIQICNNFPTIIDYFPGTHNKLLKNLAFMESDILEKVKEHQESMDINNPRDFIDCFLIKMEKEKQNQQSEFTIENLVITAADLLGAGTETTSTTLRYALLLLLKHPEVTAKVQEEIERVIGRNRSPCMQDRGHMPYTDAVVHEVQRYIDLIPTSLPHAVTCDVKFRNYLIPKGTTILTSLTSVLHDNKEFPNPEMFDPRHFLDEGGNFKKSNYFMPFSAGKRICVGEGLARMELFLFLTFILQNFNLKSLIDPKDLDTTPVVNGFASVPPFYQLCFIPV

Cytochrome P450 2C9 = Cytochrome P450 2C9 (Homo sapiens, UniProt P11712)
Cytochrome P450 2C9, sequence (P11712 whole entry): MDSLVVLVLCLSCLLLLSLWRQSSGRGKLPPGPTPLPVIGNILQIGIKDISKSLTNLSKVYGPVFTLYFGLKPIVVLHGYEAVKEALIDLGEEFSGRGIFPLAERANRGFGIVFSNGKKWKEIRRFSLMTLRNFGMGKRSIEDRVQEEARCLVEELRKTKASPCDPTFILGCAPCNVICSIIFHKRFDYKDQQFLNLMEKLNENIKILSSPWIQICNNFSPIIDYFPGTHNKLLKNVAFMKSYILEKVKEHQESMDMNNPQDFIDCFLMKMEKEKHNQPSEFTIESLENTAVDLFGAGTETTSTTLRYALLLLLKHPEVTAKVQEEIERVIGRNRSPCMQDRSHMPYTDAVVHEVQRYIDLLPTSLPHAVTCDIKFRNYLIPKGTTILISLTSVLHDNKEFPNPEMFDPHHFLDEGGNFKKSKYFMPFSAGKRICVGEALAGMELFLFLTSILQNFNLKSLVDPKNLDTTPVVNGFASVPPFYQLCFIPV

[4] = Luminescence Cell-Based Dose Retest to Confirm Inhibitors of Cancer Stem Cells. [Related pubchem assays (depositor defined):AID2717, AID2721]; type: functional; conditions: Homo sapiens
Protein RecA = molecular target: T3, Protein RecA (Mycobacterium tuberculosis, UniProt P9WHJ3); assay: Fluorescence Cell-Free Homogeneous Dose Retest to Identify Inhibitors of RecA-Intein Splicing Activity. [Related pubchem assays (depositor defined):AID2097, AID2223, AID489010, AID492950]; type: functional
T3 sequence (P9WHJ3 whole entry): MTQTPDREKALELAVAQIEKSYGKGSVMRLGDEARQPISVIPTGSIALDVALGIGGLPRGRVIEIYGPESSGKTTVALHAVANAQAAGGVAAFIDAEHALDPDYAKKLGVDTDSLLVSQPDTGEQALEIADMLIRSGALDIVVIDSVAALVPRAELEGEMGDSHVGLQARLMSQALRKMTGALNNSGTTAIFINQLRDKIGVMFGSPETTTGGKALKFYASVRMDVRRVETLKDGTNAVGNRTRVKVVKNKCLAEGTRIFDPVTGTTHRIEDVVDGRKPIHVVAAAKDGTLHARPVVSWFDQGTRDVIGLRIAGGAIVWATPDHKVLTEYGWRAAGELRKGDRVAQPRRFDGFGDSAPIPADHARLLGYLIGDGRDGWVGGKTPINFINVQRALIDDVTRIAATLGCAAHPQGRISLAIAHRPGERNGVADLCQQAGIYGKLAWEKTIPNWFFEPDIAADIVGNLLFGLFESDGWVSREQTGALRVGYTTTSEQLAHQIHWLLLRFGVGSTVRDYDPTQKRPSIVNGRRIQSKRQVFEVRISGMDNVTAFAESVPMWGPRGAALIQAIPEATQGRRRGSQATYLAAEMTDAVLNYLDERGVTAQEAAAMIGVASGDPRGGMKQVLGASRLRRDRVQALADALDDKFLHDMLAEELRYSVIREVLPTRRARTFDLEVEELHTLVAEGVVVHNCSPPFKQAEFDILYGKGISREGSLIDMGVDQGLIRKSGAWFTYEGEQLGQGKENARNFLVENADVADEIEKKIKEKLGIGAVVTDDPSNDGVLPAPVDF

Streptokinase A = molecular target: T4, Streptokinase A (Streptococcus pyogenes serotype M1, UniProt P10520); assay: S. pyogenes streptokinase expression inhibitors, potency, dose response, plasminogen activation absorbance, OD405 (AID 1914); type: functional, Streptococcus pyogenes M1 GAS;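 note: secreted streptokinase activity via plasminogen activation per viability signal from cell pellet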
T4 sequence (P10520 whole entry): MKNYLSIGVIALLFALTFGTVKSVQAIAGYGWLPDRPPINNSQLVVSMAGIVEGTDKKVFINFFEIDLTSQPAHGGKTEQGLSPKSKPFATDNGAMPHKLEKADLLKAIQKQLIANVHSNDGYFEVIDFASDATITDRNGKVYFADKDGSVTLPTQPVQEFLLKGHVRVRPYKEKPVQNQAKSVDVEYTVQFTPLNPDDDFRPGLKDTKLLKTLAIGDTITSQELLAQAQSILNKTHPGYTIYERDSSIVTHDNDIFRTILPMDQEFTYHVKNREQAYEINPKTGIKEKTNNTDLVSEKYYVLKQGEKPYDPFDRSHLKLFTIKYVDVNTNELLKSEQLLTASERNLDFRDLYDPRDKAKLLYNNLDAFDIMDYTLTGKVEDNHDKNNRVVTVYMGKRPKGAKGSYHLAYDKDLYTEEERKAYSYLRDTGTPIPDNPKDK

[5] = molecular target: T5, Replicative DNA helicase DnaB (Mycobacterium tuberculosis, UniProt P9WMR3); assay: DnaB intein splicing inhibitors, dose response, biochemical, cell-free fluorescence (AID 449749); type: functional
T5 sequence (P9WMR3 whole entry): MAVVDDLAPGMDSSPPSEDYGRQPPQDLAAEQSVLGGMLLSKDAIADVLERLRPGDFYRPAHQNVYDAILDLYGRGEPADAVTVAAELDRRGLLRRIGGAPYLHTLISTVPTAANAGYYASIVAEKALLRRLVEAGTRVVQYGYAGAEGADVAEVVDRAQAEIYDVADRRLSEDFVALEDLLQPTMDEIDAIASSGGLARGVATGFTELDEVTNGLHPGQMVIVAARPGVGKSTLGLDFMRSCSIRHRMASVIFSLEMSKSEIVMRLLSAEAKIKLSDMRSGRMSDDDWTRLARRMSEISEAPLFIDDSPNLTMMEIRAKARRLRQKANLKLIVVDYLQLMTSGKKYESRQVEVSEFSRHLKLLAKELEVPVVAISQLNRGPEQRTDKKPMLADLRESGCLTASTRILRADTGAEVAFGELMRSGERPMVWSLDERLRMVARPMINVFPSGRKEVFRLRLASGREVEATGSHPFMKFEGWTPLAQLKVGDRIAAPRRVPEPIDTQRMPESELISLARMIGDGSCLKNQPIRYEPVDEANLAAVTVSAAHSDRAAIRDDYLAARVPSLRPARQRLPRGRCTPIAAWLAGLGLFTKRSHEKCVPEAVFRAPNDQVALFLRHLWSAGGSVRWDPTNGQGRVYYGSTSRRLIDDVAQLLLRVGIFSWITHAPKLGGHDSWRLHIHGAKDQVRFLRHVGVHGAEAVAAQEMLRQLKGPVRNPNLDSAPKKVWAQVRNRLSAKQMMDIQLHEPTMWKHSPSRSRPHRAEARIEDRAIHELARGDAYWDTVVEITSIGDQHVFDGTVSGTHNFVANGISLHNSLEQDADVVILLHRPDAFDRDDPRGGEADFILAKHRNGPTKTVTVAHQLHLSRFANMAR

Cytochrome P450 3A4 = Cytochrome P450 3A4 (Homo sapiens, UniProt P08684);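 note: CYP3A4 tested as one member of a cytochrome P450 panel screen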
Cytochrome P450 3A4, sequence (P08684 whole entry): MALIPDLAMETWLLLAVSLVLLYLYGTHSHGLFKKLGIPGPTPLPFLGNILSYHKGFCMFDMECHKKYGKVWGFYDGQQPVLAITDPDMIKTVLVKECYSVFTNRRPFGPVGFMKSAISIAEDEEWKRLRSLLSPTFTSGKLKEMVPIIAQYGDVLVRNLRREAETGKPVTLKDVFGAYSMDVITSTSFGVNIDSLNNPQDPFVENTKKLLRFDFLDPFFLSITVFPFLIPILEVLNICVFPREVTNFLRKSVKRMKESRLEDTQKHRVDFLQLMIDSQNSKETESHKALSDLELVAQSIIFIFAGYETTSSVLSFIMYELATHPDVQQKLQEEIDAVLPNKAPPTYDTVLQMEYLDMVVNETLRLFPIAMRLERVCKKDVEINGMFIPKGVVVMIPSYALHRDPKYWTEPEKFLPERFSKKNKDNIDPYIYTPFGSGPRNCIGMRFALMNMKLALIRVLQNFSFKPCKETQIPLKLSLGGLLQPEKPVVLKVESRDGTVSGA

[6] = Luminescence Cell-Based Dose Response HTS to Identify Activators of Luciferase Translation or Activity in H4 […] Cells. [Related pubchem assays: 1829 (Project Summary), 1814 (Primary HTS)]; type: functional
[7] = Luminescence Cell-Based Dose Confirmation HTS to Identify Activators of 5'UTR Stem-Loop Driven Alpha-Synuclein mRNA Translation in H4 Neuroglioblastoma Cells. [Related pubchem assays: 1829 (Project Summary), 1814 (Primary HTS)]; type: functional
H4 = assay: Luminescence Cell-Based Dose Response HTS to Identify Activators of 5'UTR Stem-Loop Driven Prion Protein mRNA Translation in H4 Neuroglioblastoma Cells. [Related pubchem assays: 1829 (Project Summary), 1814 (Primary HTS)]; type: functional; conditions: Homo sapiens
[8] = MC4R antagonists, dose response, counter-screen for LGR2 antagonist project, cell-based, plate reader, cherry pick (AID 743444); type: functional;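 note: transfected HEK 293 cells stimulated with alpha-MSH peptide; potency of inhibitors of the alpha-MSH evoked signal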
[9] = LGR2 antagonists, dose response, cell-based, HEK293, CRE-luciferase reporter, cherry pick, set 2 (AID 743343); type: functional;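 note: transfected cells were stimulated with diluted bursicon conditioned medium after compound addition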

For CN(C)S(=O)(=O)c1cccc(NC(=O)COC(=O)/C=C/c2ccco2)c1, the IC50 [1] was 21.1 µM (active).
For CC(C)C(=O)Nc1ccc(C(=O)Nc2nnc(C(C)(C)C)s2)cc1, the EC50 [2] was 0.237 µM (active).
For Cc1c(Cl)c(C(F)F)nn1CC(=O)NC1C(=O)N2C(C(=O)O)=C(CSc3nnnn3C)CSC12 (centres undefined), the IC50 [1] was 6.48 µM (active), the EC50 [3] was < 0.06 µM (active) and the EC50 (Streptococcus) was 0.106 µM (active).
With O=C(Nc1cc(-c2nc3ccccc3s2)ccc1Cl)c1ccc2c(c1)OCO2 the EC50 (Melanocortin receptor 4) was > 89.2 µM (inactive), the AC50 (Cytochrome P450 2C19) was 3.55 µM (inconclusive) and the AC50 (Cytochrome P450 2C9) was 1.78 µM (inconclusive).
For c1csc(-c2nc(NCC3CCCO3)c3ccccc3n2)c1 (centres undefined), the EC50 [2] was 4.73 µM (active).
With FC(F)Oc1ccccc1N=C(S)Nc1cccc(Cl)c1Cl the EC50 [2] was 7.5 µM (active).
For O=C(CSc1nnc(-c2ccc(S(=O)(=O)N3CCCC3)cc2)o1)NCc1ccco1, the IC50 [1] was 16.3 µM (active).
In the case of COc1ccc2c(c1)[N+](C)(C)C(C)(C)C=C2C, the IC50 [1] is reported as 3.14 µM (active).
With FC(F)(F)c1ccc(C2[C@H]3CN(Cc4cccnc4)[C@H](c4ccccc4)C34CC2(c2cccnc2)C4)cc1 (some centres undefined) the AC50 [4] was 3.07 µM (active), the EC50 (Protein RecA) was 24.1 µM (active) and the EC50 [3] was 2.85 µM (active). The EC50 (Streptokinase A) was 6.65 µM (active), the EC50 (Streptococcus) was 12 µM (active) and the AC50 [5] was 3.46 µM (active).
For COc1ccc(C2CC(c3ccccc3)Nc3nc(NC(=O)c4cccs4)nn32)cc1 (centres undefined), the EC50 [2] was 1.06 µM (active).
In the case of Nc1c(-c2cccs2)cnn1-c1nc(-c2ccc(Cl)cc2Cl)cs1, the AC50 (Cytochrome P450 3A4) is reported as 12.6 µM (inconclusive), the EC50 (Melanocortin receptor 4) is reported as > 89.2 µM (inactive) and the AC50 (Cytochrome P450 2C9) is reported as 20 µM (inconclusive).
For CCCOc1cccc(C(=O)NCCNC(=O)c2ccco2)c1, the EC50 [2] was 2.99 µM (active).
With CC1CCCN1CC#CC(O)(c1ccccc1)c1ccccc1 (centres undefined) the EC50 [2] was 0.188 µM (active).
With O=C(Cn1nnc(-c2ccc(NC(=O)c3ccccc3F)cc2)n1)NCc1ccc(F)cc1 the IC50 [1] was 4.75 µM (active).
In the case of COc1ccc(-c2oc3ccc(-c4ccc5c(c4)OCO5)cc3c2C#CC2(O)CCCCC2)cc1, the EC50 (Melanocortin receptor 4) is reported as > 89.2 µM (inactive).
In the case of O=C(N/N=C/c1ccc(Cl)cc1)c1ccc2c(c1)OCO2, the EC50 [6] is reported as 1.87 µM (active), the IC50 [1] is reported as 6.93 µM (active) and the EC50 [7] is reported as > 120 µM (not active). For the same molecule, the EC50 (H4) was 2.44 µM (active).
With COc1ccc(NC(=O)COC(=O)c2c(NC(C)=O)sc(C)c2C)cc1 the EC50 (Melanocortin receptor 4) was > 89.3 µM (inactive).
For CC(=O)Nc1cc(-c2ccc(C(=O)N3CCOCC3)cc2)cn2c(-c3ccccc3)cnc12, the EC50 (Melanocortin receptor 4) was > 89.2 µM (inactive).
In the case of COc1ccc(S(=O)(=O)N2CCCCN3[C@H](CO)[C@H](c4ccc(-c5cccnc5)cc4)[C@@H]3C2)cc1, the AC50 [8] is reported as 25.6 µM (active) and the AC50 [9] is reported as 20 µM (active).
